{"source": "paper PMC11928584", "about": "“H105A peptide eye drops promote photoreceptor survival in murine and human models of retinal degeneration” (Communications Medicine, 2025)", "tested_on": "human iPSC-derived retinal organoids exposed to CSE", "assay": "TUNEL staining of retinal organoid sections", "type": "cell-based", "conditions": "Figure 8f; CSE + peptide; individual values, n=5", "procedure": "Human iPSCs were differentiated into retinal organoids (ROs) following the protocol by Zhong et al.[41]. Briefly, on Day 0, hiPSC colonies were dissociated with dispase and grown in a suspension to form embryoid bodies, and slowly transitioned to neural induction media (DMEM/F12 (1:1), 1% N2 supplement (Invitrogen), 1 x minimum essential media-nonessential amino acids (NEAAs), 2 µg/ml heparin (Sigma)). On Day 7, EBs were seeded on Matrigel coated plates and maintained in neural induction media. On Day 16, the media was switched to the retinal differentiation medium (DMEM/F12 (3:1), 2% B27 (without vitamin A, Invitrogen), 1x NEAA and 1% antibiotic–antimycotic (Gibco)). Retinal domains were identified and lifted manually with tungsten needles between Day 21 and Day 26 under a phase contrast microscope. On day 30, the culture medium was transitioned to DMEM/F12 (3:1) with 2% B27, 1x NEAA, 1% antibiotic–antimycotic, 10% fetal bovine serum (FBS; Gibco), […] Taurine (Sigma), and 2 mM GlutaMAX (Invitrogen). Additionally, 1 µM retinoic acid supplement was introduced daily starting from day 63. On day 91, the medium was modified to DMEM/F12 (1:1) supplemented with 1% N2, 1 x NEAAs, 1% antibiotic–antimycotic, 10% FBS, […] Taurine and 2 mM GlutaMAX, and the concentration of retinoic acid supplementation was reduced to 0.5 µM for the remainder of the culture period. The use of hiPSCs in this study conforms to the University of Colorado Institutional Biosafety Committee standards. […]\nD180 ROs were treated with each of the 5 experimental conditions, as described above (n = 5 for each condition), washed with PBS three times, and fixed with 4% paraformaldehyde for 10 min at room temperature. […] Fluorescence images were acquired with a Nikon C2 Confocal Microscope A1 (Minato City, Tokyo, Japan) and stitched together using Nikon Elements Software. Images were analysed with Fiji. The relative area of positive immunostaining was calculated as a percentage of total retinal area. […]", "note": "Several values for one entry are separate records, joined by “and”; a condition that tells them apart may be missing. Equal entries are not always repeated. Where a SMILES comes first, the peptide text is derived from it.", "data": [{"smiles": "CC[C@H](C)[C@H](NC(=O)[C@H](CC(C)C)NC(=O)[C@H](CC(=O)O)NC(=O)[C@H](Cc1ccc(O)cc1)NC(=O)[C@H](Cc1ccc(O)cc1)NC(=O)[C@H](CC(C)C)NC(=O)[C@H](C)NC(=O)[C@H](CCCNC(=N)N)NC(=O)[C@H](Cc1c[nH]cn1)NC(=O)[C@@H](NC(=O)[C@@H](NC(=O)[C@H](CO)NC(=O)[C@H](CCC(=O)O)NC(=O)[C@@H](NC(=O)[C@H](C)NC(=O)[C@@H](N)CCC(N)=O)[C@@H](C)O)[C@@H](C)CC)[C@@H](C)CC)C(=O)N[C@@H](CO)C(=O)O", "note": "[R99A] (H-QATESIIHRALYYDLIS-OH)", "values": [{"measurement": "Relative TUNEL(+) area", "value": "4.87 and 4.90 and 3.81 and 6.35 and 6.42"}]}]}
